Changes are numbered by the printed parent chain.
Experiments:
[1] = target: T1, Lucilia cuprina LcαE7 (E3) esterase, OP resistant allele, clone Lc7L103D (Gly to Asp at amino acid position 137) (Lucilia cuprina, UniProt Q25252, form not given/G137D); test: Radiometric partition assay for OP hydrolysis, enzyme expressed in vitro (baculovirus/Sf9); type: biochemical
T1 sequence (Q25252 1-570 G137D): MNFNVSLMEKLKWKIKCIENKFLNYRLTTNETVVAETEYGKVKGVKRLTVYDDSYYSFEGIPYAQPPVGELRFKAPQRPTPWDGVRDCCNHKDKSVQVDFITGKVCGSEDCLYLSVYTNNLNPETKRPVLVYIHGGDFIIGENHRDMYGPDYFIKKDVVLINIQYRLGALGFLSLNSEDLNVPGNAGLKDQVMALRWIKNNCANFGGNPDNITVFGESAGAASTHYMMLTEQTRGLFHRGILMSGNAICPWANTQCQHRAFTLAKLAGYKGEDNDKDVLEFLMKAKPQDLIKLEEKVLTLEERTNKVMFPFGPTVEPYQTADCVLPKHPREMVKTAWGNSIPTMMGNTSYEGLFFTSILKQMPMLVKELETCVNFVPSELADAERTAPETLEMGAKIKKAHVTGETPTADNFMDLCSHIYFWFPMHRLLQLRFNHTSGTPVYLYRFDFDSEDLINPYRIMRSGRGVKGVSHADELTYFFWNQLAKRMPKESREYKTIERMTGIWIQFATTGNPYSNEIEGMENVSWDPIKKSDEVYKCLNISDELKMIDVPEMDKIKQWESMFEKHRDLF
Description: (§1) The susceptible (clone Lc743) and resistant (clone Lc7L103D) alleles of LcαE7 were cloned into the baculovirus transfer vector, Bacpac 8 (Clonetech), 3' of the polyhedrin promoter. Transfections were conducted using a lipofection method with polybrene (Sigma) according to King, L. A. & Possee, R. D. (The Baculovirus Expression System: A Laboratory Guide, Chapman & Hall, London, 1992). One μg of DNA of each of the resulting constructs together with 200 ng of Bacpac 6 baculovirus DNA (Clonetech), linearised by digestion with the restriction enzyme BSU 36I (Progema), was incubated in a solution of hepes buffered saline containing 0.5% polybrene (Sigma) at room temperature for 10 minutes. The solution was then used to transfect a single well of a six well tissue culture plate pre-seeded 2 hr previously with 10^4 Sf9 (Spodoptera frugiperda) cells in 1.5 ml Grace's medium (King, L. A. & Possee, R. D, The Baculovirus Expression System: A Laboratory Guide, Chapman & Hall, London, 1992). After 12 hr, the medium was removed, made up to 10% DMSO and placed back over the cells for 5 minutes. This was then replaced with 3 ml of Grace's medium containing 10% fetal calf serum. Construct plus polybrene, linearised virus plus polybrene and polybrene only controls were conducted in parallel with transfections. […]

[2] = test system: CFVP hydrolysing enzyme (E3 esterase) in homogenate of OP-resistant L. cuprina strain RM2-6 [der-S]; test: Radiometric partition assay for OP hydrolysis, whole-fly homogenate; type: biochemical, Lucilia cuprina; conditions: preliminary kinetic experiments
Description: Enzyme samples were diluted in 0.1M imidazole-HCl buffer pH 7.0 ("imidazole buffer") to a final volume of 25 μl. Reactions were started by the addition of 25 μl of [^14 C-ethyl]-chlorfenvinphos (CFVP, 306.5 MBq/mmole, Internationale Isotope Munchen) diluted in imidazole buffer from a 7.5 mM stock solution in ethanol. The final chlorfenvinphos concentration was typically 50 or 75 μM for routine assays but can be much lower for the determination of kinetic parameters. The reaction was incubated at 30° C. and stopped by the addition of 300 μl dichloromethane and 150 µl of imidazole buffer containing 10 μM diethylphosphate (Eastman Kodak) followed by vigourous vortex mixing. The reactions were centrifuged to separate phases and 150 μl of the upper, aqueous phase was taken for scintillation counting to determine the amount of ^14 C-diethylphosphate produced by hydrolysis of CFVP. Incubations with boiled enzyme were also performed to control for non-enzymic hydrolysis of CFVP.
(i) Whole-fly homogenates: Assays were carried out on whole-fly homogenates using 50 μM CFVP. […] The boiled control hydrolysed CFVP at a rate of 0.48 pmol/min/mg protein. Homogenates derived from an OP-susceptible strain (LS2) hydrolysed CFVP at the same rate as the boiled control, indicating the absence of CFVP hydrolytic enzymic activity in OP-susceptible L. cuprina.

[3] = target: T2, Lucilia cuprina LcαE7 (E3) esterase, OP susceptible allele, clone Lc743 (printed Lc473), SEQ ID NO:3 (Lucilia cuprina, UniProt Q25252); test: Malathion hydrolysis / time-dependent inhibition of the enzyme by malathion; type: biochemical; conditions: in the presence of 4 μM malathion; supernatant of cells expressing the OP susceptible allele
T2 sequence (Q25252 1-570): T1 sequence (Q25252 1-570 G137D) with D137G
Description: as §1, with “1992).” for “1992). After 12 hr, the medium was removed, made up to 10% DMSO and placed back over the cells for 5 minutes. This was then replaced with 3 ml of Grace's medium containing 10% fetal calf serum. Construct plus polybrene, linearised virus plus polybrene and polybrene only controls were conducted in parallel with transfections.”
Initial rates of malathion hydrolysis by the supernatant of cells expressing the OP susceptible allele, […], was 3.3 pmole/min/μl from an initial concentration of 4 μM malathion. […] Malathion hydrolysis (0.5 pmoles/min/μl) was also detected in the supernatant of cells expressing the D. melanogaster homologue, DmaE7.

Compound	Km ([1]; cells expressing the Lc7L103D allele, CFVP hydrolysis, imidazole-HCl pH 7.0, 30° C., preliminary kinetic experiments, read-out: Km of the CFVP hydrolysing enzyme) [µM]	Vmax of CFVP hydrolysis ([1]; cells expressing the OP resistant allele Lc7L103D, pH 7.0, 30° C.)	Km ([2]; RM2-6 homogenate, CFVP hydrolysis, pH 7.0, 30° C.) [µM]	Vmax for the hydrolysis of CFVP ([2]; homogenates of the resistant strain)	half-life of enzyme inhibition by malathion [3]
CCOP(=O)(OCC)OC(=CCl)c1ccc(Cl)cc1Cl [CFVP, chlorfenvinphos]	~16	approximately 2.0 nmol/min/mg protein	~16	approximately 13 pmol/min/mg protein	
CCOC(=O)CC(SP(=S)(OC)OC)C(=O)OCC (centres unmarked) [malathion]					about 20 minutes

From US5843758A, “Enzyme based bioremediation” (priority 1994, dated 1998)
